Each molecule was assayed against Sodium-dependent serotonin transporter (Rattus norvegicus, UniProt P31652) (assay: Displacement of [3H]-Citalopram from SERT in rat cerebral cortex homogenates after 1 hr by liquid scintillation counter).
Chain of Sodium-dependent serotonin transporter (Rattus norvegicus, UniProt P31652) (P31652 whole entry): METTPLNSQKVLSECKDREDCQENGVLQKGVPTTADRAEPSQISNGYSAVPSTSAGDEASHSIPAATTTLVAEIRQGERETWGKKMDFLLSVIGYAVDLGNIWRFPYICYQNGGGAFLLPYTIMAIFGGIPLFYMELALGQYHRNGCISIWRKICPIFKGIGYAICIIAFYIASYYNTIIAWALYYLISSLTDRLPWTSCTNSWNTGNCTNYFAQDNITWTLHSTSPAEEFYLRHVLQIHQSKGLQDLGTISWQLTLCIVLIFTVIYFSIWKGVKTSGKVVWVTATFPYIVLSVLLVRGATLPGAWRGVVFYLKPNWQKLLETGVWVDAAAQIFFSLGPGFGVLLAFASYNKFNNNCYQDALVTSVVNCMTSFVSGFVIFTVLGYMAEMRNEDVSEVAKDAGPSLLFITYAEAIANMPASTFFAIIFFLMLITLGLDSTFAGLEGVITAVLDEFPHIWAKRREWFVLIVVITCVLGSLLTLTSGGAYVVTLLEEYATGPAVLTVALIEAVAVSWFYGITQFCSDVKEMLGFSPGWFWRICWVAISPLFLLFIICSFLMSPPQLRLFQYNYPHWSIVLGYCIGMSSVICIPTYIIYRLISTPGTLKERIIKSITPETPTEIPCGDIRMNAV
Type: tissue-based
`CC1CN(c2ccc3cc([N+](=O)[O-])ccc3n2)CCN1CCCCN1C(=O)CCCC1=O` (stereo unspecified) was tested, and the IC50 was 268 nM. `O=C1CCCC(=O)N1CCCCN1CCN(c2ccc3cc([N+](=O)[O-])ccc3n2)CC1` was tested, and the IC50 was 921 nM. In the case of `CC1CN(c2ccc3cc([N+](=O)[O-])ccc3n2)CCN1CCCCN1C(=O)CC2(CCCC2)CC1=O` (stereo unspecified), the IC50 is reported as 1350 nM. In the case of `O=C1CC2(CCCC2)CC(=O)N1CCCCN1CCN(c2ccc3cc([N+](=O)[O-])ccc3n2)CC1`, the IC50 is reported as 25900 nM. Work on `CC1CN(c2ccc3cc([N+](=O)[O-])ccc3n2)CCN1CCCCN1C(=O)CC(C)(C)CC1=O` (stereo unspecified) yielded an IC50 of 807 nM. In the case of `CC1(C)CC(=O)N(CCCCN2CCN(c3ccc4cc([N+](=O)[O-])ccc4n3)CC2)C(=O)C1`, the IC50 is reported as 616 nM. `O=C1c2ccccc2C(=O)N1CCCCN1CCN(c2ccc3cc([N+](=O)[O-])ccc3n2)CC1` showed an IC50 of 4130 nM. `CC1(C)CC(=O)N(CCCCN2CCN(c3ccc4c(Cl)cccc4n3)CC2)C(=O)C1` was tested, and the IC50 was 2800 nM. `CC(=O)Nc1ccc2nc(N3CCN(CCCCN4C(=O)CC5(CCCC5)CC4=O)CC3)ccc2c1` gave an IC50 of 18800 nM. Molecule `CC1CN(c2ccc3ccccc3n2)CCN1CCCCN1C(=O)CC(C)(C)CC1=O` (stereo unspecified) has an IC50 of 171 nM.

These molecules were tested against Sodium-dependent serotonin transporter (Homo sapiens, UniProt P31645) (assay: Displacement of [3H]-5HT from human SERT).
Chain of Sodium-dependent serotonin transporter (Homo sapiens, UniProt P31645) (P31645 whole entry): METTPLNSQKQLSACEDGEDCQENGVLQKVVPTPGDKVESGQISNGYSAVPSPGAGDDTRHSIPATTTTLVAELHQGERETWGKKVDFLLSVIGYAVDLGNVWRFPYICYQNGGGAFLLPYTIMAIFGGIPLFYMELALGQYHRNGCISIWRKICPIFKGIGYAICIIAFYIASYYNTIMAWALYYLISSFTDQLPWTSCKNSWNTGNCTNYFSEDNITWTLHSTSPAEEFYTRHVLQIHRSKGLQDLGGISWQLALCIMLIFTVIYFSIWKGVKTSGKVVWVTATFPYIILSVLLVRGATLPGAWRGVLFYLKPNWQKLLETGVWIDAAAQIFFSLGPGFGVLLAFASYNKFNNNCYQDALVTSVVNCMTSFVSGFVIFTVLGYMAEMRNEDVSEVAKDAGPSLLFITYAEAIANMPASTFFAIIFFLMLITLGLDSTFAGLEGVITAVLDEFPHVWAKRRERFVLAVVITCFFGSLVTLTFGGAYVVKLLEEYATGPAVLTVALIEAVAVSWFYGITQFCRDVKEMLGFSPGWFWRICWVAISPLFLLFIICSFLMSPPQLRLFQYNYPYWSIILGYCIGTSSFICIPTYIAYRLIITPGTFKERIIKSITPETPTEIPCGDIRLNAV
For `O=[N+]([O-])c1ccc2nc(N3CCNCC3)ccc2c1` [6-NITROQUIPAZINE], the Ki was 0.17 nM.

Reference: ChEMBL document CHEMBL1944535, “Synthesis, in vitro binding studies and docking of long-chain arylpiperazine nitroquipazine analogues, as potential serotonin transporter inhibitors” (Eur J Med Chem, 2012)
